Blank lines part the entries; values can stand above or below the compound they belong to.
Legend:
Assay in all cases: fluorogenic HDAC8 inhibitor screening kit
Format in all cases: biochemical
[1] = target: T1, HDAC8 (histone deacetylase family member 8) (Homo sapiens, UniProt Q9BY41); settings: read-out: % inhibition at 60.75 μM
T1 sequence (Q9BY41 1-377): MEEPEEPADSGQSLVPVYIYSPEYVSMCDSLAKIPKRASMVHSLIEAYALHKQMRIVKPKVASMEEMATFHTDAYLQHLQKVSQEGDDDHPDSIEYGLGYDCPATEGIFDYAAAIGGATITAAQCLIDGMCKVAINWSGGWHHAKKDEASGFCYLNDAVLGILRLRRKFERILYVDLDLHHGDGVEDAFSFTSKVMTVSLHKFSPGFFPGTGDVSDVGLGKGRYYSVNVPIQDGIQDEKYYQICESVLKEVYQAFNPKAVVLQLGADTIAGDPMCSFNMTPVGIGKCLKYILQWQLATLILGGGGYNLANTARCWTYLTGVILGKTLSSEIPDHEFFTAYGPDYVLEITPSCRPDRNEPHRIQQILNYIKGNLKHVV

[2] = target: T1, HDAC8 (histone deacetylase family member 8); settings: read-out: % inhibition at 310.25 μM
[3] = target: T1, HDAC8 (histone deacetylase family member 8); settings: read-out: % inhibition at 24.2 μM

- inhibition at 60.75 µM [1]: 9.3%
SMILES: O=C(O)/C=C/c1ccccc1 [CA, Cinnamic acid]

SMILES: O=C/C=C/c1ccccc1 [CAL, Cinnamaldehyde]
- inhibition at 310.25 µM [2]: 18.5%

- inhibition at 24.2 µM [3]: 5.7%
SMILES: OCC=Cc1ccccc1 [CALC, Cinnamyl alcohol]

From paper PMC5669110 (Pharmacognosy Magazine, 2017)
